This note sets out measurements from PubChem BioAssay (NCI).

In general, GI50 refers to the concentration at which growth is held to half of that of the control. As a reminder, the TGI is the concentration giving total growth inhibition.

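Compound exposure: 48 hours, 5 concentrations, 96-well plates. Abbreviation: GI50, concentration required for 50% inhibition of growth. TGI is the concentration that stops growth completely.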 A value given as a limit tells only on which side of the number the result lay.

Among the test systems are COLO 205 colon; ACHN renal; K-562 leukemia; EKVX NSCLC; UACC-62 melanoma; HCC-2998 colon; KM12 colon; NCI-H460 lung; SN12C renal; NCI-H522 lung.
Assay in all cases: DTP human tumour cell line panel, 48 h

As to `C[C@@H](Nc1nc(Nc2ccc(F)c(Cl)c2)nc2ccccc12)C1CC1`, the GI50 was 1.71 µM in the experiment on COLO 205 colon; 4.11 µM in the experiment on ACHN renal; 2.82 µM with K-562 leukemia; 2.72 µM in the experiment on EKVX NSCLC; 2.68 µM in the experiment with UACC-62 melanoma; 2.27 µM in the experiment on HCC-2998 colon. In addition, the GI50 was 3.18 µM in the experiment on KM12 colon, 3.12 µM in the experiment with NCI-H460 lung, 3.25 µM in the experiment with SN12C renal and 4.32 µM in the experiment on NCI-H522 lung. In addition, the TGI was 3.46 µM in the experiment with COLO 205 colon; 17.3 µM in the experiment with ACHN renal; 9.75 µM with K-562 leukemia; 12.4 µM with EKVX NSCLC; 14.3 µM in the experiment with UACC-62 melanoma; 6.46 µM in the experiment on HCC-2998 colon. Moreover, the TGI in the experiment on KM12 colon is 14.1 µM; in the experiment with NCI-H460 lung, 19.3 µM; in the experiment on SN12C renal, 14.4 µM; in the experiment with NCI-H522 lung, 19.5 µM.
Turning to `O=[N+]([O-])c1cccc2nccc(NCCCO)c12`, the TGI is 15.8 µM in the experiment with COLO 205 colon; 53.5 µM in the experiment with ACHN renal; 49.3 µM in the experiment with K-562 leukemia; 23.2 µM in the experiment on EKVX NSCLC; 23.3 µM in the experiment on UACC-62 melanoma; 26 µM with HCC-2998 colon. The TGI was 24.6 µM in the experiment with KM12 colon, 24.4 µM with NCI-H460 lung, 28 µM in the experiment on SN12C renal and 20 µM with NCI-H522 lung.
Turning to `CCCCCCCCCCCCCCCCCC(=O)Nc1ccn(C2OC(CO)C(O)C2O)c(=O)n1` (stereo not given), the TGI in the experiment with COLO 205 colon, with ACHN renal, in the experiment with K-562 leukemia, in the experiment with EKVX NSCLC, in the experiment on UACC-62 melanoma and in the experiment on HCC-2998 colon was over 100 µM each time. In addition, the TGI was over 100 µM in the experiment on KM12 colon, over 100 µM in the experiment with NCI-H460 lung, over 100 µM in the experiment on SN12C renal and 75.4 µM in the experiment on NCI-H522 lung.
For `CS(=O)(=O)N(c1cc(-c2ccc3ncnc(Nc4cccc(Cl)c4)c3c2)cnc1Cl)S(C)(=O)=O`, the GI50 was 0.421 µM with COLO 205 colon; 0.412 µM with ACHN renal; 1.23 µM in the experiment on K-562 leukemia; 0.357 µM with EKVX NSCLC; 0.312 µM with UACC-62 melanoma; 0.69 µM in the experiment with HCC-2998 colon. Further, the GI50 in the experiment with KM12 colon was 1.21 µM; with NCI-H460 lung it was 0.591 µM; in the experiment with SN12C renal, 0.386 µM; in the experiment with NCI-H522 lung, 0.645 µM. Moreover, the TGI with COLO 205 colon is 2.04 µM; in the experiment on ACHN renal, over 100 µM; in the experiment with K-562 leukemia, 45.1 µM; with EKVX NSCLC, 2.25 µM; in the experiment with UACC-62 melanoma it was 2.21 µM; in the experiment on HCC-2998 colon, 2.53 µM. Further, the TGI with KM12 colon is 4.72 µM; in the experiment with NCI-H460 lung it was over 100 µM; in the experiment with SN12C renal, 17 µM; with NCI-H522 lung, 7.74 µM.
For `Cc1cccc(Cc2cnc(NC(=O)CCc3ccc(C)o3)s2)c1`, the GI50 was 0.227 µM in the experiment on COLO 205 colon; 0.526 µM with ACHN renal; 0.0541 µM in the experiment with K-562 leukemia; 0.585 µM with EKVX NSCLC; 0.16 µM in the experiment with UACC-62 melanoma; 0.409 µM in the experiment on HCC-2998 colon. The GI50 with KM12 colon was 0.16 µM; in the experiment with NCI-H460 lung it was 0.263 µM; in the experiment with SN12C renal it was 0.525 µM; in the experiment with NCI-H522 lung it was 0.183 µM. Further, the concentration for total growth inhibition (TGI) in the experiment on COLO 205 colon is 0.716 µM; in the experiment on ACHN renal, over 100 µM; with K-562 leukemia, over 100 µM; in the experiment on EKVX NSCLC, over 100 µM; in the experiment on UACC-62 melanoma it was over 100 µM; in the experiment with HCC-2998 colon it was over 100 µM. The TGI in the experiment on KM12 colon, in the experiment on NCI-H460 lung and in the experiment on SN12C renal was over 100 µM each time.
On to `CCN(CC)C(=S)[S][Bi]([S]C(=S)N(CC)CC)[S]C(=S)N(CC)CC`, for which the GI50 with COLO 205 colon was under 0.0208 µM; in the experiment with ACHN renal it was 0.226 µM; in the experiment on K-562 leukemia, 0.123 µM; in the experiment on EKVX NSCLC, 0.282 µM; in the experiment on UACC-62 melanoma it was 0.252 µM; in the experiment with HCC-2998 colon it was 1.6 µM. The GI50 in the experiment on KM12 colon was 1.61 µM; with NCI-H460 lung, 1.44 µM; with SN12C renal it was 0.264 µM; in the experiment with NCI-H522 lung it was 0.0157 µM. The TGI with COLO 205 colon is 0.131 µM; in the experiment on ACHN renal, 0.488 µM; in the experiment on K-562 leukemia, over 31.6 µM; with EKVX NSCLC, 0.732 µM; in the experiment with UACC-62 melanoma it was 0.806 µM; in the experiment on HCC-2998 colon, 3.02 µM. Moreover, the TGI with KM12 colon was 3.1 µM; in the experiment on NCI-H460 lung, 3.07 µM; with SN12C renal, 0.696 µM; with NCI-H522 lung, 0.0332 µM.
`CC1(C)C(=O)/C(=C\c2cccnc2)C[C@]2(C)[C@H]3CC[C@@H]4[C@@H](C(=O)/C=C/c5ccncc5)CC[C@@]4(C)[C@]3(C)CC[C@@H]12`: the GI50 in the experiment on COLO 205 colon is 1.88 µM; in the experiment on ACHN renal, 1.75 µM; in the experiment on K-562 leukemia it was 1.2 µM; in the experiment with EKVX NSCLC, 2.82 µM; with UACC-62 melanoma, 1.61 µM; in the experiment with HCC-2998 colon, 2.1 µM. For the same molecule, the GI50 is 1.72 µM in the experiment with KM12 colon, 1.9 µM in the experiment on NCI-H460 lung, 2.47 µM with SN12C renal and 1.66 µM in the experiment with NCI-H522 lung. The TGI is 3.87 µM with COLO 205 colon; 3.36 µM in the experiment with ACHN renal; over 100 µM with K-562 leukemia; 9.2 µM in the experiment with EKVX NSCLC; 3.46 µM in the experiment on UACC-62 melanoma; 3.84 µM in the experiment on HCC-2998 colon. The TGI in the experiment with KM12 colon stood at 3.56 µM; with NCI-H460 lung, 4 µM; in the experiment on SN12C renal, 7.85 µM; with NCI-H522 lung, 4.6 µM.
Consider `Cc1ccc(C(=O)CC2=Nc3nnc(CCCCCCCc4nnc5n4C(=O)C(CC(=O)c4ccc(C)cc4)=N5)n3C2=O)cc1`, for which the TGI in the experiment on COLO 205 colon, in the experiment on ACHN renal, in the experiment with K-562 leukemia, in the experiment with EKVX NSCLC, with UACC-62 melanoma and with HCC-2998 colon was over 100 µM throughout. The TGI in the experiment on KM12 colon, in the experiment with NCI-H460 lung, with SN12C renal and in the experiment on NCI-H522 lung was over 100 µM in each case.
As to `CC(=C/c1ccccc1)/C=C1/NC(=S)N(/C=C2\C(=O)Oc3ccccc3C2=O)C1=O`, the TGI with COLO 205 colon, with ACHN renal, in the experiment on K-562 leukemia, with EKVX NSCLC, in the experiment with UACC-62 melanoma and in the experiment on HCC-2998 colon was over 100 µM throughout. Further, the TGI was over 100 µM in the experiment with KM12 colon, over 100 µM with NCI-H460 lung, over 100 µM with SN12C renal and over 90.5 µM with NCI-H522 lung. Also, the GI50 in the experiment on UACC-62 melanoma is 40.7 µM.
